According to patent US5112944A, “Cyclic tetrapeptide and process for preparing the same” (Shionogi & Co., Ltd., priority 1989, dated 1992):
Where a SMILES comes first, the peptide text is derived from it. [ ]: non-standard residue; d: D form. Aoe = N[C@@H](CCCCCC(=O)[C@@H]1CO1)C(=O)O; dPip = O=C(O)[C@H]1CCCCN1

Legend:
[1] = tested on: NIH3T3 cells transformed with sis oncogene; experiment: Detransformation activity (return of transformed cells to normal flat morphology); format: cell-based
Procedure: (§1) The employed culture solution was prepared by adding 9.5 g of DALBECCO'S EAGLE MEM medium (made by NISSUI SEIYAKU CO., LTD.) and 20 ml of 7% sodium bicarbonate to 1 l of distilled water and then adding fetal bovine serum (made by Flow Laboratories, Inc., U.S.A.) to be 10% by volume at the final concentration.
(§2) To each well of a 12-well plastic dish made by Flow Laboratories, Inc., 2 ml of the above-mentioned culture solution, 2×10^4 cells/ml of NIH3T3 cells transformed with sis oncogene (provided by National Cancer Institute of the U.S.; Science, 218, 1131 (1982)) and each test compound (RF-1023-A or RF-1023-B) in each concentration (5 to 400 ng/ml) were added and cultured at 37° C. in 5% CO2 incubator. Twenty-four hours later the morphology of the cells was observed and detransformation activity (activity for inhibiting transformation of NIH3T3 cells transformed with the oncogene and returning to normal flat morphology of cells) was estimated. Two days after the incubation, cells subjected to the medium containing RF-1023-A were dispersed with 0.05% trypsin, and the cell number was measured by means of hemocytometer.

[2] = tested on: NIH3T3 cells transformed with sis oncogene; experiment: Cell number / cell proliferation of transformed cells (hemocytometer); format: cell-based; conditions: for Cell number: 2 days after the incubation; for Percentage of increase: 2 days, untreated = 100
Procedure: as §1, §2

[3] = 24 hours, lowest concentration tested

Row | SMILES | Concentration at which detransformation activity is shown [1, 3] [ng/mL] | Cell number ([2]; 5 ng/ml test compound) | Percentage of increase ([2]; 5 ng/ml test compound) [%] | Cell number ([2]; 50 ng/ml test compound) | Percentage of increase ([2]; 50 ng/ml test compound) [%] | Cell number ([2]; 100 ng/ml test compound) | Percentage of increase ([2]; 100 ng/ml test compound) [%] | Cell number ([2]; 200 ng/ml test compound) | Percentage of increase ([2]; 200 ng/ml test compound) [%] | Cell number ([2]; 400 ng/ml test compound) | Percentage of increase ([2]; 400 ng/ml test compound) [%] | Concentration at which detransformation activity is shown ([1]; same experiment system) [ng/mL]
1 | O=C1N[C@@H](Cc2ccccc2)C(=O)N2CCCC[C@@H]2C(=O)N[C@@H](CCCCCC(=O)[C@@H]2CO2)C(=O)N[C@H]1Cc1ccccc1 [RF-1023-A] (cyclo([Aoe]FF[dPip])) | 5 | 3.8 × 10^5 | 35 | 3.4 × 10^5 | 29 | 1.5 × 10^5 | 0 | 1.1 × 10^5 | -6 | 1.1 × 10^5 | -6 | 
2 | O=C1N[C@@H](Cc2ccccc2)C(=O)N2CCC[C@@H]2C(=O)N[C@@H](CCCCCC(=O)[C@@H]2CO2)C(=O)N[C@H]1Cc1ccccc1 [RF-1023-B] (cyclo(FF[dP][Aoe])) | 5 |  |  |  |  |  |  |  |  |  |  | 
3 | CC(=O)NCCCCCCNC(C)=O [hexamethylene bisacetamide, reference compound] |  |  |  |  |  |  |  |  |  |  |  | 3e+06
